Data taken from ChEMBL document CHEMBL1201862, “PubChem BioAssay data set” (2004).
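Dose response: 5 concentrations. Exposure: 48 h. Format: 96-well plates. Endpoint: linear interpolation; highest concentration if not reached. Here, GI50 denotes the concentration required for 50% inhibition of growth.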 Active and inactive are the calls of the source. Rule as the data show it: active = GI50 up to about 1.1 µM and inactive = higher.

Legend:
Experiment in all cases: DTP human tumour cell line panel, 48 h
A498 = test system: A498
HCT-116 = test system: HCT-116
HCT-15 = test system: HCT-15
HOP-92 = test system: HOP-92
KM12 = test system: KM12
LOX IMVI = test system: LOX IMVI
MCF7 = test system: MCF7
NCI-H226 = test system: NCI-H226
NCI-H23 = test system: NCI-H23
NCI-H522 = test system: NCI-H522
OVCAR-4 = test system: OVCAR-4
RPMI-8226 = test system: RPMI-8226
SF-268 = test system: SF-268
SK-MEL-28 = test system: SK-MEL-28
SN12C = test system: SN12C
SNB-75 = test system: SNB-75
SW-620 = test system: SW-620
U-251 = test system: U-251
UACC-62 = test system: UACC-62
UO-31 = test system: UO-31

SMILES | GI50 (A498) | GI50 (HCT-116) | GI50 (HCT-15) | GI50 (HOP-92) | GI50 (KM12) | GI50 (LOX IMVI) | GI50 (MCF7) | GI50 (NCI-H226) | GI50 (NCI-H23) | GI50 (NCI-H522) | GI50 (OVCAR-4) | GI50 (RPMI-8226) | GI50 (SF-268) | GI50 (SK-MEL-28) | GI50 (SN12C) | GI50 (SNB-75) | GI50 (SW-620) | GI50 (U-251) | GI50 (UACC-62) | GI50 (UO-31)
CC(C)Oc1cc2c(cc1O)CC[C@@H]1[C@@H]2CC[C@]2(C)[C@@H](O)CC[C@@H]12 | 6.65 µM (inactive) | 3.33 µM (inactive) | 1.61 µM | 11.2 µM (inactive) | 4.2 µM (inactive) | 4.58 µM (inactive) | 2.25 µM (inactive) | 3.23 µM (inactive) | 7.19 µM (inactive) | 1.58 µM (inactive) | 9.64 µM (inactive) | 4.29 µM (inactive) | 5.93 µM (inactive) | 8.3 µM (inactive) | 5.66 µM (inactive) | 4.69 µM (inactive) | 2.72 µM (inactive) | 13.3 µM (inactive) | 2 µM (inactive) | 6.46 µM (inactive)
O=C1C(NCCc2ccc(O)c(O)c2)=CC(=O)c2ncccc21 | 20.7 µM (inactive) | 12.2 µM (inactive) | 13.4 µM | 20.1 µM (inactive) | 13.2 µM (inactive) | 4.45 µM (inactive) | 4.02 µM (inactive) | 13.7 µM (inactive) | 7.36 µM (inactive) | 2.36 µM (inactive) | 16.9 µM (inactive) | 16.6 µM (inactive) | 13.3 µM (inactive) | 11.8 µM (inactive) | 10.1 µM (inactive) | 5.96 µM (inactive) | 14.4 µM (inactive) | 4.3 µM (inactive) | 5.37 µM (inactive) | 11.4 µM (inactive)
Cc1cc(S(N)(=O)=O)c(S/C(=N\Nc2ccc([N+](=O)[O-])cc2)c2ccc(Cl)cc2)cc1Cl | 4.32 µM (inactive) | 3.15 µM (inactive) | 4.3 µM | 2.26 µM (inactive) | 1.94 µM (inactive) | 2.1 µM (inactive) | 2.01 µM (inactive) | 2.22 µM (inactive) | 2.25 µM (inactive) | 3.21 µM (inactive) | 1.71 µM (inactive) | 2.58 µM (inactive) | 2.3 µM (inactive) | 0.573 µM (active) | 3.23 µM (inactive) | 1.83 µM (inactive) | 3.22 µM (inactive) | 2.25 µM (inactive) | 4.57 µM (inactive) | 4.42 µM (inactive)
O=C(NCCN1CCOCC1)c1ccc2cc(C(=O)N3CC(CCl)c4ccc([N+](=O)[O-])cc43)[nH]c2c1 (stereo not given) | 7.03 µM (inactive) | 13.5 µM (inactive) | 19.1 µM | 8.24 µM (inactive) | 23.1 µM (inactive) | 2.63 µM (inactive) | 17.5 µM (inactive) | 27.3 µM (inactive) | 43.6 µM (inactive) | 4.67 µM (inactive) | 8.77 µM (inactive) | 2.43 µM (inactive) | 9.84 µM (inactive) | 6.62 µM (inactive) | 19.2 µM (inactive) | 6.7 µM (inactive) | 20.1 µM (inactive) | 9.66 µM (inactive) | 11.9 µM (inactive) | 43.4 µM (inactive)
O=C1c2cccnc2S(=O)(=O)N1c1ccc([N+](=O)[O-])cc1 | > 100 µM (inactive) | > 100 µM (inactive) | > 100 µM | > 100 µM (inactive) | > 100 µM (inactive) | > 100 µM (inactive) | > 100 µM (inactive) | > 100 µM (inactive) | > 100 µM (inactive) | 24.9 µM (inactive) | > 100 µM (inactive) | 57 µM (inactive) | > 100 µM (inactive) | > 100 µM (inactive) | > 100 µM (inactive) | > 100 µM (inactive) | > 100 µM (inactive) | > 100 µM (inactive) | > 100 µM (inactive) | > 100 µM (inactive)
COC(=O)C1C(C(=O)OC)C1(Br)CBr (stereo not given) | > 100 µM (inactive) | 39.3 µM (inactive) | 17.9 µM | 22.9 µM (inactive) | > 100 µM (inactive) | 20.9 µM (inactive) | 46.1 µM (inactive) | > 100 µM (inactive) | 70.1 µM (inactive) | 3.54 µM (inactive) | 39.7 µM (inactive) | 16.5 µM (inactive) | 28.9 µM (inactive) | 35.4 µM (inactive) | 27.5 µM (inactive) | > 100 µM (inactive) | 31.7 µM (inactive) | > 100 µM (inactive) | > 100 µM (inactive) | 18.4 µM (inactive)
O=C(NCCSSCCNC(=O)/C(Cc1ccc(O)c(Br)c1)=N/O)/C(Cc1ccc(O)c(Br)c1)=N/O [PSAMMAPLIN A] | 2.9 µM (inactive) | 1.39 µM (inactive) | 4.89 µM | 4.01 µM (inactive) | 1.47 µM (inactive) | 1.3 µM (inactive) | 2.02 µM (inactive) | 9.82 µM (inactive) | 3.2 µM (inactive) | 0.682 µM (active) | 3.1 µM (inactive) | 1.36 µM (inactive) | 1.62 µM (inactive) | 3.16 µM (inactive) | 1.43 µM (inactive) | 0.889 µM (active) | 1.64 µM (inactive) | 1.1 µM (active) | 1.72 µM (inactive) | 1.74 µM (inactive)
